Measured values: US11434242B2, “Dopamine-b-hydroxylase inhibitors” (BIAL-PORTELA & Cª, S.A., priority 2017, dated 2022)
Marks after values point to notes of the source that are not given here.

Biological target: T1, Dopamine beta hydroxylase (Homo sapiens, UniProt P09172)
T1 construct: 125 μl of plasma; tissue Instituto Português do Sangue Transplantação; host or cells: human plasma from healthy donors
T1 sequence (P09172 40-617 limits assumed): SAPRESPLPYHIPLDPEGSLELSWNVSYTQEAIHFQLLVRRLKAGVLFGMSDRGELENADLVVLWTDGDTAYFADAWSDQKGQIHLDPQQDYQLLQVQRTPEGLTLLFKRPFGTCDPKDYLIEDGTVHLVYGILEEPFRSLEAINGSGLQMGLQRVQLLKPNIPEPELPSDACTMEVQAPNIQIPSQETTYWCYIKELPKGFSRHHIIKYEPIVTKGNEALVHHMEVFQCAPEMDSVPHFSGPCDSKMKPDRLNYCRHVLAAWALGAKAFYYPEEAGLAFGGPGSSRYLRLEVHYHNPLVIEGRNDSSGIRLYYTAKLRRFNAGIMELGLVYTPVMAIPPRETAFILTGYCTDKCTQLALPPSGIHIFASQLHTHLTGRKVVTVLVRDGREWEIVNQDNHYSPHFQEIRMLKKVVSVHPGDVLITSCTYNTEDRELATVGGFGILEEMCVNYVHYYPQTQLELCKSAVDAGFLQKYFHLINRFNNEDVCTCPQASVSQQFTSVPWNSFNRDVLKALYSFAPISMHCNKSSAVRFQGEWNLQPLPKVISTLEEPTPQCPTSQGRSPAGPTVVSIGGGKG
Assay: Dopamine beta hydroxylase activity in human plasma
Type: biochemical
In short: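 Healthy-donor human plasma pre-incubated 10 min at 37° C with compound at final 10, 100 or 1000 nM in pH 5.0 acetate buffer with ascorbate, fumarate, pargyline, N-ethylmaleimide, catalase and copper sulfate. Tyramine substrate then added for 45 min; octopamine formed was isolated by SCX cartridge, periodate-converted and read at 330 nm; activity given as % control.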

SMILES	Plasma (0.01 μM), activity in % of control (inhibitor 0.01 μM)	Plasma (0.01 μM), activity in % of control, re-test (asterisked) (inhibitor 0.01 μM, re-tested under the same experimental conditions, asterisked data believed to be correct)	Plasma (0.1 μM), activity in % of control (inhibitor 0.1 μM)	Plasma (0.1 μM), activity in % of control, re-test (asterisked) (inhibitor 0.1 μM, re-tested under the same experimental conditions, asterisked data believed to be correct)	Plasma (1 μM), activity in % of control (inhibitor 1 μM)
CC(C)(C)OC(=O)N1CCC[C@@H]1CNC(=O)Cc1[nH]c(=S)n2c1C[C@@H](c1c(F)ccc(Br)c1F)C2 [Example 122, tert-butyl (R)-2-((2-((S)-6-(3-bromo-2,6-difluorophenyl)-3-thioxo-2,5,6,7-tetrahydro-3H-pyrrolo[1,2-c]imidazol-1-yl)acetamido)methyl)pyrrolidine-1-carboxylate]	70.8 % of control		13.0 % of control		
Cl.Fc1ccc(Br)cc1[C@]12C[C@H]1c1c(CCN3CCCC3)[nH]c(=S)n1C2 [Example 185, (5aS,6aR)-5a-(5-bromo-2-fluorophenyl)-1-(2-(pyrrolidin-1-yl)ethyl)-5,5a,6,6a-tetrahydrocyclopropa[3,4]pyrrolo[1,2-c]imidazole-3(2H)-thione hydrochloride]	72.9 % of control		30.9 % of control		
O=C(Cc1[nH]c(=S)n2c1C[C@H](c1c(F)c(F)cc(F)c1F)C2)N1CCC[C@H]1CO [Example 98, 1-((S)-2-(hydroxymethyl)pyrrolidin-1-yl)-2-((R)-6-(2,3,5,6-tetrafluorophenyl)-3-thioxo-2,5,6,7-tetrahydro-3H-pyrrolo[1,2-c]imidazol-1-yl)ethan-1-one]			53.1 % of control		11.7 % of control
CCOCCCc1[nH]c(=S)n2c1C[C@H](c1c(F)c(F)cc(F)c1F)C2 [Example 216, (R)-1-(3-ethoxypropyl)-6-(2,3,5,6-tetrafluorophenyl)-2,5,6,7-tetrahydro-3H-pyrrolo[1,2-c]imidazole-3-thione]	84.5 % of control		47.1 % of control		

The next lines start with the values.

Plasma (0.01 μM), activity in % of control (inhibitor 0.01 μM)	Plasma (0.01 μM), activity in % of control, re-test (asterisked) (inhibitor 0.01 μM, re-tested under the same experimental conditions, asterisked data believed to be correct)	Plasma (0.1 μM), activity in % of control (inhibitor 0.1 μM)	Plasma (0.1 μM), activity in % of control, re-test (asterisked) (inhibitor 0.1 μM, re-tested under the same experimental conditions, asterisked data believed to be correct)	Plasma (1 μM), activity in % of control (inhibitor 1 μM)	SMILES
43.4 % of control	73.1* % of control	4.5 % of control	16.6* % of control		Cn1c(CC(=O)Nc2ncco2)c2n(c1=S)C[C@@H](c1c(F)c(F)cc(F)c1F)C2 [Example 316, (R)-2-(2-methyl-3-thioxo-6-(2,3,5,6-tetrafluorophenyl)-2,5,6,7-tetrahydro-3H-pyrrolo[1,2-c]imidazol-1-yl)-N-(oxazol-2-yl)acetamide]
104.2 % of control		78.6 % of control			Cn1c(CC(=O)N2CCOCC2)c2n(c1=S)C[C@H](c1c(F)ccc(F)c1F)C2 [Example 411, (S)-2-(2-methyl-3-thioxo-6-(2,3,6-trifluorophenyl)-2,5,6,7-tetrahydro-3H-pyrrolo[1,2-c]imidazol-1-yl)-1-morpholinoethan-1-one]
80.0 % of control		36.0 % of control			Cn1c(CC(=O)N[C@@H]2CCOC2)c2n(c1=S)C[C@H](c1cc(Cl)ccc1F)C2 [Example 251, 2-((S)-6-(5-chloro-2-fluorophenyl)-2-methyl-3-thioxo-2,5,6,7-tetrahydro-3H-pyrrolo[1,2-c]imidazol-1-yl)-N—((R)-tetrahydrofuran-3-yl)acetamide]
87.8 % of control		48.5 % of control			CN(C(=O)Cc1[nH]c(=S)n2c1C[C@H](c1c(F)ccc(F)c1F)C2)C1COC1 [Example 420, (R)—N-methyl-N-(oxetan-3-yl)-2-(3-thioxo-6-(2,3,6-trifluorophenyl)-2,5,6,7-tetrahydro-3H-pyrrolo[1,2-c]imidazol-1-yl)acetamide]
77.2 % of control		40.3 % of control			Cn1c(CC(=O)NC2CCCC2C#N)c2n(c1=S)C[C@@H](c1c(F)ccc(F)c1F)C2 (stereo partly drawn) [Example 345, N-(2-cyanocyclopentyl)-2-((R)-2-methyl-3-thioxo-6-(2,3,6-trifluorophenyl)-2,5,6,7-tetrahydro-3H-pyrrolo[1,2-c]imidazol-1-yl)acetamide]
